Assay results: patent US12264142B2, “Heterocyclic compounds” (FLORATEK PHARMA SA, priority 2019, dated 2025)
Entries after “also recorded” stand apart in the source; their conditions may differ.

Columns and labels:
[1] = system: C. elegans; test: Life span assay on Automated Lifespan Machine (SND302, SND303); assay type: in vivo; conditions: for Maximum life span: average lifespan of the ten longest-lived worms; for Age in days at 25% mortality / Age in days at 50% mortality / Age in days at 75% mortality / Age in days at 90% mortality / Age in days at 100% mortality: SND302, SND303 25 μM, Uro A, Resveratrol 50 μM
Description: An additional life span assay using an adapted standard protocol employed and published by the C. elegans Intervention Testing Program, or CITP was employed to assess the activity of SND302 and SND303. A positive and a negative control were included in the assay. In a preliminary experiment the optimal conditions for the life span analysis was determined and the stress level induced by the compounds as well as toxicity were measured.
For the life span assay over 300 worms per conditions were used and the study was conducted by InVivoBiosystems (USA) using an Automated Lifespan Machine (ALM) with proprietary modifications to improve temperature stability and image acquisition.
To prevent chemical modification or metabolism of the test article by the food bacteria, worms were fed on a lawn of UV-killed bacteria (UV-i bacteria). An overnight culture of E. coli strain WP-2 was pelleted, washed, filtered, and irradiated. A suspension of UV-i bacteria was spotted on NGM agar containing Streptomycin to inhibit growth of contaminating bacteria. The quantity and distribution of food bacteria was calibrated to ensure adequate access to food for the duration of assay while maintaining visibility of the worms.
Test article was delivered to worms by a method compatible with and previously validated on the Automated Lifespan Machine and used by the CIT [Lucanic, et. al. Impact of genetic background and experimental reproducibility on identifying chemical compounds with robust longevity effects. Nature Communications 8 (2017)]. A 200× stock solution was freshly prepared in DMSO immediately before application. 40 μl of DMSO stock (0.5% plate volume) was applied to the plate to coat the food bacteria and then chased immediately with 160 μl water to uniformly distribute a fine precipitate across the surface of the plate. This functioned to provide reservoirs of compound in food, agar, and agar surface.
The ALM used by InVivoBiosystems is based on the Caenorhabditis elegans lifespan machine published by Stroustrup, N. et al. The Caenorhabditis elegans Lifespan Machine. N at Methods 10, 665-670 (2013), with proprietary modifications to improve temperature stability and image acquisition. The scanner unit consists of a modified EPSON V850 and images are processed and analyzed using the ALM software 7. The machine time-of-death calls are trained and validated using the “storyboarding” feature of the ALM software.
The lifespan assay was designed and performed according to published and validated methods, Amrit, F. R. G., Ratnappan, R., Keith, S. A. & Ghazi, A. The C. elegans lifespan assay toolkit. Methods 68, 465-475 (2014); Lucanic, et. al. Manual Lifespan Assay Standard Operating Procedure. Caenorhabditis Intervention Testing Program https://figshare.com/articles/7_CITP_SOP_Manual_Lifespan_Assay/9738197/1. using a modified version of the Automated Lifespan Machine. Worms were age synchronized by bleaching and eggs were plated directly onto NGM agar seeded with UV-I bacteria (Day 1, hatch). On Day 3, when the worms had reached the late L4 stage, they were transferred to dishes containing 100 μM 5-Fluorodeoxyuridine (FUdR) to suppress progeny. On day 5, the worms were washed off the dishes and 30-50 worms were plated on each scanner dish. Plates were immobilized inverted on the bed of an Automated Lifespan Machine which scanned two images per hour of the plates continuously for the next 40 days.
Time of death calls exported from the ALM software were analyzed and plotted using the Lifelines software package developed by Davidson-Pilon, (2019). lifelines: survival analysis in Python. Journal of Open Source Software, 4(40), 1317.

[2] = system: human hepatocytes; test: Cell viability (ATP content) in primary human hepatocytes; assay type: cell-based; conditions: 1 to 100 μM, 24 h exposure, pooled human hepatocytes
Description: (§1) Cytotoxicity potency of test compound SND301 was assayed in human hepatocytes from pooled donor lots at three concentrations; 1, 10 and 100 μM. Cytotoxicity was assayed from medium samples after 24 h exposure period with test compounds by measuring membrane integrity (LDH leakage), coupled to fluorescent signal. In parallel, cell viability was assayed by the means of ATP content, indicating the metabolically competent cell activity. ATP content was measured based on luciferase catalysed reaction generating stable bioluminescent signal. Cytotoxic positive control compound was used: chlorpromazine at 5-250 μM.
(§2) Cryopreserved human hepatocytes from pooled donor lot (Bioreclamation IVT) were seeded on collagen I coated 96-well plates (Corning Biocoat) at 0.55×10^5 cells per well in 120 μl InVitroGRO™ CP medium (BioIVT), including additives Torpedo Antibiotic mix (BioIVT). […] Cytotoxicity and cell viability were evaluated based on LDH release in medium and ATP content in the cells after 24 hours exposure phase.
The remaining medium and cells were used for the assessment of metabolically competent cells (ATP) according to the manufacturer's (Promega) protocol. […] The samples were transferred to white opaque-walled 96-well plate (Corning #3610) after which measured with plate reader for luminescence.
(§3) Both LDH and ATP assays were measured 1-2 hours post treatment with assay components.

[3] = system: human hepatocytes; test: Cytotoxicity (LDH leakage, membrane integrity) in primary human hepatocytes; assay type: cell-based; conditions: 1 to 100 μM, 24 h exposure, pooled human hepatocytes
Description: as §1, §2
After 24 h exposure half of the culture medium (50 μl) was transferred to black opaque-walled 96-well plate (Corning #3603) for LDH measurements and allowed to settle to room temperature. […] Thereafter the samples were analysed with plate reader for fluorescence (LDH; 560ex, 590em).
as §3

[4] = system: N2 wild type strain of worms; test: Toxicity and food avoidance test in worms (SND301); assay type: in vivo, C. elegans; conditions: concentrations up to 50 μM, from embryo to first day of adulthood
Description: In a first stage of this study, normal worms were treated with various concentrations of SND301 to test toxicity and food avoidance.
To test food avoidance worms were placed on agar plates containing a grid of alternating control and compound-containing food spots. The number of worms on each food spot was recorded every two hours.

[5] = system: N2 wild type strain of worms; test: C. elegans life span (survival) assay, manual scoring (SND301); assay type: in vivo; conditions: for Death events / Maximum life span / Median lifespan: SND301 and Urolithin A 50 μM; for % Complete: deaths attributed to aging from total worm population
Description: The survival assay was conducted in the presence of 50 μM SND301 with measurements of live, dead, and censored worms at time points every 2-3 days from the start of adulthood.
Thioflavin T was used in the assay as a positive control [Gamir-Morralla A et al, 2019, “Effects of Thioflavin T and GSK-3 Inhibition on Lifespan and Motility in a Caenorhabditis elegans Model of Tauopathy”, J Alzheimers Dis Rep., 3(1): 47-57]. Vehicle 25% and 1% DMSO were used as controls and represent the vehicles in which compounds and bacteria or bacteria alone respectively were resuspended. The final DMSO concentration in the agar plates was 0.5% and 0.02% respectively.
5 mM DMSO stock solutions for each compound were prepared in high-grade DMSO. Stocks were protected from light and stored in glass vials at 21° C. in a temperature-controlled room (to avoid freeze/thaw of DMSO). A fresh stock was prepared at the start of each experiment and stored for <1 week.
The lifespan assay was designed and performed according to published and validated methods with modifications for chemical treatment [Amrit F R G et al, 2014, “The C. elegans lifespan assay toolkit”, METHODS 68, 465-475; Leukanic, et. Al, “Manual Lifespan Assay Standard Operating Procedure”, Caenorhabditis Intervention Testing Program, https://figshare.com/articles/7_CITP_SOP_Manual_Lifespan_Assay/9738197/1]. Plates were seeded with compound dissolved in 25% DMSO and bacteria. The DMSO diffused through the agar to reach a final concentration of 0.5%. Synchronized day 1 adult worms were transferred to seeded plates containing compound and allowed to lay eggs for 2 hours (Day 0, “hatchoff”). The young adults were then removed, and the eggs were incubated at 20° C. until they had reached the young adult stage (day 3). 200 young adult worms per treatment were transferred to 8 fresh seeded 35 mm dishes with compound and 50 μM 5-Fluorodeoxyuridine to suppress progeny. […] Worms that were missing, stuck to the dish, burrowed, injured, or exploded were scored as censored and removed from the plate. To maintain chemical exposure at the experimental concentrations, worms were transferred every other scoring day to new seeded plates with compound.

[6] = system: C. elegans gene expression; test: Whole transcriptome analysis (RNA-Seq) of treated worms; assay type: in vivo; conditions: for Significant differentially-expressed genes: 25 μM
Description: To determine the mode of action for SND302 and SND303 the gene transcription in young and aged adults was analyzed by RNA-Seq (whole transcription analysis). For each condition, >300 worms were treated in parallel with the lifespan assay and maintained under identical conditions.
Differential gene expression was performed with EdgeR using […] likelihood ratio tests based on fitting linear models. The likelihood ratios were used to determine the p-values which were subsequently corrected for using the BH false discovery rate (fdr) method. Eventually, differential expressed genes were defined as genes with fdr-corrected p-value of 0.05 or lower, as well as a change in expression of at least 2-fold in a given between-group comparison. Compounds SND302 and SND303 were compared against Urolithin and Vehicle control. […] In general the transcriptomic data corroborates a differential effect for SND303 when compared to SND302 (FIGS. 1-4).
Worms for RNA-Seq were split from the same synchronized pool of worms for the lifespan with each of the three replicates being maintained and treated in parallel. More than 150 worms per replicate were harvested, cleaned by filtration, and frozen at −80° in Trizol. To extract RNA, samples were thawed, vigorously vortexed, and processed using the Direct-zol RNA Miniprep Kit (Zymo Research). All samples exceeded our threshold for RNA quantity and quality. RNA samples were submitted to Novogene Co. Ltd and subjected to more stringent QC, being tested on a Qubit for concentration and run on an agarose gel and on the Agilent […] assess RNA quality and integrity. […] The total RNA was then enriched for poly-mRNA using oligo(dT) paramagnetic beads. DNA libraries were then constructed from this input mRNA using the NEBNext Ultra™ II RNA Library Prep Kit.
These libraries were then further tested by the Qubit for concentration and the Agilent 2100 for library size distribution and quality. In order to properly pool the libraries and load them onto sequencing lanes to ensure the correct number of reads per sample, an even more precise quantification of the library was done via qPCR, and the samples were loaded onto the NovaSeq 6000 platform for a paired-end sequencing run of 150 bp for each end (PE150). The loading concentrations were designed to obtain at least 6.0 Gb (which is the number of billion bases of raw data, determined by the number of reads multiplied by the length of each read). A mean of 7.4 Gb (median 7.3 Gb) raw sequencing data was obtained across all samples, with a minimum of 6.3 Gb and a maximum of 8.5 Gb raw data. Sequencing run data quality control was performed both by Novogene and by an in-house analysis. The raw data set was analyzed for parameters such as the distribution of base quality along the length of the sequencing read, the distribution of error rate along the length of the sequencing read. Reads containing adapter sequences, with N>10% (where N means “base cannot be determined”) and with a low quality (Qscore<=5) for 50% or more of its total bases were removed.

[7] = Table 1A, at a certain point during the study, N2

Q: What does the source list for `Oc1ccc(C=Cc2cc(O)cc(O)c2)cc1` [Resveratrol, reference compound]?
A: Median lifespan ([1]; 50 μM): 28.2 days; Maximum life span ([1]; 50 μM): 36.6 days; Age in days at 25% mortality [1]: 24.6 days; Age in days at 50% mortality [1]: 28.2 days; Age in days at 75% mortality [1]: 30.5 days; Age in days at 90% mortality [1]: 32.7 days; Age in days at 100% mortality [1]: 37.8 days

Q: How did the ATP content [2] turn out when `CNC(=O)Oc1ccc2c(c1)oc(=O)c1cc(OC(=O)NC)ccc12` [SND301] was run?
A: Its ATP content is 72-103%.

Q: And the “Cytotoxicity (LDH) leakage” value [3]?
A: Its value is 7-10%.

Q: And the Tolerability of exposure [4]?
A: Its Tolerability of exposure is “well tolerated”.

Q: What about the “Effect on lifespan” value ([5]; 50 μM, in words) of the same compound?
A: Its value is “significantly increased life span; also recorded: significantly increased median lifespan”.

Q: What about the Death events [5, 7] of the same compound?
A: Its Death events is 59.

Q: What about the “% Complete” value [5, 7] of the same compound?
A: Its value is 31.6%.

Q: And the Death events ([5]; Table 1B, end of the study)?
A: The Death events was 179.

Q: And the “Maximum life span” value ([5]; end of the study)?
A: The value was 31 days.

Q: And the “Median lifespan” value ([5]; end of the study)?
A: Its value is 24 days.

Q: And the Surviving fraction ([5]; until day 24, compared with all groups)?
A: The Surviving fraction was “highest surviving fraction by a considerable margin”.

Q: Which results are given for `CCNC(=O)Oc1ccc2c(c1)oc(=O)c1cc(OC(=O)NCC)ccc12` [SND302]?
A: Median lifespan ([1]; 25 μM): 28.2 days; Mean lifespan ([1]; 25 μM, area under the survival curve): 27.0 days; Maximum life span ([1]; 25 μM): 36.1 days; Age in days at 25% mortality [1]: 24.2 days; Age in days at 50% mortality [1]: 28.2 days; Age in days at 75% mortality [1]: 31.0 days; Age in days at 90% mortality [1]: 33.0 days; Age in days at 100% mortality [1]: 37.9 days; Effect on lifespan ([1]; in words, compared to control): did not show a significant difference from the control; Significant differentially-expressed genes ([6]; Day 3, compared to the controls (Vehicle and Urolithin A)): 7-8 genes; Expression of gene C50F7.5 ([6]; Day 10): significantly upregulated; Significant differentially-expressed genes ([6]; Day 10, compared to the controls (Vehicle and Urolithin A)): 12-14 genes; Toxicity and stress response induction (transcriptome) ([6]; early exposure period): some signs of toxicity and stress response induction

Q: Which results are given for `Cc1ccc2c(c1)sc(-c1ccc(N(C)C)cc1)[n+]2C.[Cl-]` [Thioflavin, Thioflavin T]?
A: Death events [5, 7]: 38; % Complete [5, 7]: 23.2%; Death events ([5]; Table 1B, end of the study): 38; Maximum life span ([5]; end of the study): 33 days; Median lifespan ([5]; end of the study): 21 days
